Data taken from patent US7078059B2, “Treatment of bone diseases” (Shire Holdings AG, priority 2000, dated 2006).

Columns and labels:
mature osteoblasts = test: In vitro bone formation assay (calcium deposition into bone nodules); format: cell-based, mouse; details: LA number = ng/ml lanthanum; lanthanum (III) / lanthanum (III) ion = all concentrations tested, 100 to 15,000 ng/ml; 17-estradiol 10^−10M
Method: The activity of mature osteoblasts can be determined by quantifying their ability to form mineralized bone matrix. This is done by demineralizing the formed bone matrix, and determining the amount of calcium released. Thus, this culture system fulfills requirements of an in vitro model useful for studying the bone formation activity of mature osteoblasts. […] At the end of the culture, the amount of calcium deposited during the culture period was determined, and the amount of bone formation (calcium deposition) calculated. […] Extracts of 50 μl were complexed with 1 ml determined o-cresol-phthalein-complexon. The colorimetric reaction was determined at 570 nm in a spectrophotometer. Absolute calcium concentrations were determined by comparison with a calibrated standard provided by the vendor. In this study, the effect of lanthanum carbonate on bone formation was tested. […] The amount of bone formation was determined by measuring the amount of calcium deposited into bone nodules formed by mature osteoblasts. The results are shown as the amount of calcium released (mmol/L) from the bone nodules after HCl extraction. The baseline values are too low to show the results using relative amounts as was done in the other assays.

[1] = tested on: mouse bone marrow derived osteoprogenitor cells; test: In vitro osteoblast differentiation assay (cellular alkaline phosphatase); format: cell-based; details: LA number = ng/ml lanthanum; lanthanum (III) ion = 100-15000 ng/ml; 17-estradiol 10^−10 M
Description: We have established a culture model in which mouse bone marrow derived osteoprogenitor cells first proliferate and then differentiate to osteoblasts capable of forming mineralized bone nodules (Qu et al. 1998, Qu et al. 1999). We confirmed this by following the expression of several markers of the osteoblastic phenotype and by studying the morphology of cultures at light and electron microscopic level. […] Thus, this culture system fulfills requirements of an in vitro model useful for studying differentiation of osteoprogenitor cells into bone synthesizing osteoblasts. […] Animals were killed by cervical dislocation. Both femora were removed and the soft tissues were detached aseptically. Metaphyses from both ends were cut off and bone marrow cells were collected by flushing the diaphysis with culture medium: phenol red-free-α-modified essential medium (α-MEM (Gibco BRL, Paisley, UK)). […] The cells were cultured for 6 days and half of the media […] days. […] Cells were washed with warm PBS and adherent cells were detached using trypsin-EDTA. […] The test substances were added at the beginning of the secondary culture without estrogen, and every time when the medium was changed. The number of osteoblasts formed was determined by measuring cellular alkaline phosphatase (ALP) activity in the culture. […] Louis, Mo., USA), and overnight freezing. ALP activity was determined colorimetrically using p-nitrophenylphosphate as substrate at pH 9.7 and determining the optical density at 405 nm. In parallel, protein contents of the wells were determined by the BIO-RAD protein assay, and the specific ALP activity is expressed as units/mg protein. […] Osteoblast differentiation was determined by measuring cellular alkaline phosphatase (ALP) activities and total protein amounts from cell lysates. The ALP activities were divided with the corresponding protein amounts to obtain specific activities of ALP. The results are shown as relative specific activities obtained by dividing each individual value with the mean value of the baseline group.

[2] = tested on: osteoclasts cultured on bone slices; test: In vitro bone resorption assay (osteoclasts on bovine bone slices, CrossLaps); format: cell-based, rat; details: LA number = ng/ml lanthanum; lanthanum (III) ion = any of the concentrations tested (100-15000 ng/ml); bafilomycin Al 10 nM
Description: The method of osteoclast culture on bone slices was originally described by Boyde et al. (1984) and by Chambers et al. (1984). For cell culture, we used a method slightly modified from the original methods (Lakkakorpi et al. 1989, Lakkakorpi and Väänänen, 1991). The rate of bone resorption in the cultures was originally determined by counting the number of resorption pits on each bone or dentine slice using a microscope with phase contrast objectives (Sundquist et al. 1990). Later, the pits were visualized using Wheat Germ Agglutinin lectin that specifically binds to the resorbed area in bone (Selander et al. 1994), making it possible to quantify the total resorbed area using a microscope and computer-assisted image analysis system (Laitala and Väänänen 1994, Hentunen et al. 1995). We used a commercially available method (CrossLaps for cultures, Osteometer Biotech, Herlev, Denmark) to detect the amount of collagen cross-links released into the culture medium as an index of the bone resorption rate (Bagger et al., 1999).
The study protocol uses a method where osteoclasts are cultured on bone slices and allowed to resorb bone. The system is ideal for determining the effect of drug candidates on the bone resorbing activity of osteoclasts. Drug candidates are added into the cell cultures at the beginning of the culture period, and the osteoclasts allowed to resorb bone for 3 days. The amount of bone resorbed during the culture period is determined and compared to the amount of bone resorbed in control cultures (those cultured in the absence of drug candidates).
Transverse 0.1 mm thick slices of cortical bone were cut from the diaphysis of fresh bovine femurs (Atria Slaughterhouse, Oulu, Finland) using a low-speed diamond saw, cleaned by ultrasonication in multiple changes of sterile distilled water, and stored at 4° C. before use. Long bones were removed from 1-day-old rat pups killed by decapitation. […] The resulting suspension of dispersed cells and bone fragments was agitated using a plastic pipette. Larger fragments were allowed to sediment for a few seconds and the supernatant was seeded onto the bone slices pre-wetted in the medium. After a settling period of 30 minutes at 37° C., the bone slices were washed by dipping in fresh medium, and then transferred to wells in 24-well culture dishes containing osteoclast culture medium. The bone slices were incubated in a humidified atmosphere of 95% air and 5% carbon dioxide at 37° C. for 72 hours.
After the culture period, the amount of bone resorption was determined by measuring the amount of collagen cross-links released into the culture medium using a commercial kit (CrossLaps for cultures, Osteometer Biotech) according to the manufacturer s instructions. The number of osteoclasts in each culture was determined by microscopic counting of the amount of TRAP-positive multinuclear cells, and the results are given as the number of collagen cross-links released per one osteoclast.
In the bone resorption assay, the amount of medium CrossLaps (nM) released into the culture medium was determined and the number of osteoclasts in the corresponding cultures calculated. The medium CrossLaps amounts were divided with the osteoclast numbers in the corresponding cultures, and the results are given on Table 1 as relative medium CrossLaps amounts per osteoclasts. The relative values were obtained by dividing each individual value with the mean value of the baseline group.

Row | Structure (SMILES) | Effect on bone formation activity of mature osteoblasts, in words (mature osteoblasts) | Effect on osteoblast differentiation, in words [1] | Effect on bone resorption / bone resorbing activity of mature osteoclasts, in words [2]
1 | C[C@]12CC[C@@H]3c4ccc(O)cc4CC[C@H]3[C@@H]1CC[C@@H]2O [17-β estradiol, reference compound] | activated bone formation significantly | activated osteoblast differentiation significantly | 
2 | CO/C1=C\C(C)=C\[C@@H](C)[C@@H](O)[C@@H](C)C/C(C)=C/C=C/[C@H](OC)[C@@H]([C@@H](C)[C@@H](O)[C@H](C)[C@@]2(O)C[C@@H](O)[C@H](C)[C@@H](C(C)C)O2)OC1=O [Bafilomycin Al, reference compound] |  |  | completely inhibited bone resorption
